Experimental data taken from patent US20250051347A1, “BIFUNCTIONAL CHIMERIC HETEROCYCLIC COMPOUND AND USE THEREOF AS ANDROGEN RECEPTOR DEGRADER” (Hinova Pharmaceuticals, Inc., priority 2021, published 2025).

Key:
[1] = Pharmacokinetics in mice (plasma exposure after oral administration); format: in vivo; details: mouse, ICR mice, oral (i.g.) 3 mg/kg, read-out: After oral administration of 3 mg/kg, mouse plasma exposure AUCinf
22RV1 cells = details: Homo sapiens, 22Rv1, 144 h, read-out: 22RV1 IC50 (nM), 22RV1 cells, 6 days culture, CCK-8, OD 450 nm
[2] = target: T1, androgen receptor (AR) splicing variant AR-v7 (Homo sapiens, UniProt P10275); experiment: Degradation activity on androgen receptor splicing variant AR-v7 in 22RV1 cells (ELISA); format: cell-based; details: AR-v7 degradation in 22RV1 cells, 48 h, class symbols
T1 construct: The degradation activity of compounds on AR-v7 in 22RV1 cells; host or cells: 22RV1 cells
T1 sequence (P10275 1-644 isoform P10275-3): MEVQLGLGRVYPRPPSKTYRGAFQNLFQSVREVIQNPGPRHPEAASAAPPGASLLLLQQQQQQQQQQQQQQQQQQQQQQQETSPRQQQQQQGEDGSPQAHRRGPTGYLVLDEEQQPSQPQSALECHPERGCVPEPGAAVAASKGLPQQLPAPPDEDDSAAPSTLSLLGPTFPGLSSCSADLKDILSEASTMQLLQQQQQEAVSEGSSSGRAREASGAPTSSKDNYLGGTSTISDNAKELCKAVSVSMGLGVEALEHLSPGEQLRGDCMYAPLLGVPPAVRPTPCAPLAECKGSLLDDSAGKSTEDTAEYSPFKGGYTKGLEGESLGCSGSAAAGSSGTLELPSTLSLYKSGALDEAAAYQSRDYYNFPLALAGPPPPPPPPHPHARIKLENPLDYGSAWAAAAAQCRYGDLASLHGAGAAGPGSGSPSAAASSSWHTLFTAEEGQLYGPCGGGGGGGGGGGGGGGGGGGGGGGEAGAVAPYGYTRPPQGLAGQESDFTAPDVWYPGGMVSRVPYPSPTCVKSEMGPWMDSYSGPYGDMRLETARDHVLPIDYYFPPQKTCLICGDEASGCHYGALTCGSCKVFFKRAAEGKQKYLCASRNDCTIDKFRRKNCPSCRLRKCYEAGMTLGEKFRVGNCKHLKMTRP

Row | SMILES | AUC(0-inf) [1] | IC50 (22RV1 cells) | DC50 [2]
1 | C=CC(c1ccc(Oc2ccc(-c3noc(C)n3)nn2)cc1)c1ccc(O[C@H]2C[C@H](Nc3ccc4c(c3)C(=O)N(C3CCC(=O)NC3=O)C4=O)C2)cc1 (stereo partly drawn) [Example 259] | 5000 to 30000 ng·h/mL | 7 nM | < 10 nM
2 | CC1(N)CN(c2nccc(COc3ccc(C(C)(C)c4ccc(O[C@H]5C[C@H](Nc6ccc7c(c6)C(=O)N(C6CCC(=O)NC6=O)C7=O)C5)cc4)cc3)n2)C1 (stereo partly drawn) [Example 275] | 1000 to 5000 ng·h/mL | 4 nM | < 10 nM
3 | O=C1CCC(N2C(=O)c3ccc(N[C@H]4C[C@H](Oc5ccc(C6(c7ccc(OCc8ccnc(N9CC%10(COC%10)C9)n8)cc7)CCCC6)cc5)C4)cc3C2=O)C(=O)N1 (stereo partly drawn) [Example 360, 5-(((1r,3r)-3-(4-(1-(4-((2-(2-oxa-6-azaspiro[3.3]heptane-6-yl)pyrimidin-4-yl)methoxy)phenyl)cyclopentyl)phenoxy)cyclobutyl)amino)-2-(2,6-dioxopiperidin-3-yl)isoindolin-1,3-dione] | 1000 to 5000 ng·h/mL | 4 nM | < 10 nM
4 | CC(C)(c1ccc(OCc2ccnc(NC3CCN(CCCCO)CC3)n2)cc1)c1ccc(O[C@H]2C[C@H](Nc3ccc4c(c3)C(=O)N(C3CCC(=O)NC3=O)C4=O)C2)cc1 (stereo partly drawn) [Example 239] | 100 to 1000 ng·h/mL | 3 nM | < 10 nM
5 | CC(C)(c1ccc(O[C@H]2C[C@@H](Nc3ccc4c(c3)C(=O)N(C3CCC(=O)NC3=O)C4=O)C2)cc1)c1ccc(N2CCc3cnc(N4CC5(COC5)C4)nc3C2)cc1 (stereo partly drawn) [Example 190] | 5000 to 30000 ng·h/mL | 12 nM | < 10 nM
6 | CC(C)(c1ccc(O[C@H]2C[C@H](Nc3ccc4c(c3)C(=O)N(C3CCC(=O)NC3=O)C4=O)C2)cc1)c1ccc(N2CCc3cnc(N4CC5(COC5)C4)nc3C2)cc1 (stereo partly drawn) [Example 189] | 5000 to 30000 ng·h/mL | 9 nM | < 10 nM
7 | CC(C)(c1ccc(Oc2ccnc(N3CC4(COC4)C3)n2)cc1)c1ccc(OC2CC(Nc3ccc4c(c3)C(=O)N(C3CCC(=O)NC3=O)C4=O)C2)cc1 (stereo not drawn) [Example 240, 5-((3-(4-(2-(4-((2-(2-oxa-6-azaspiro[3.3]heptan-6-yl)pyrimidin-4-yl)oxy)phenyl)propan-2-yl)phenoxy)cyclobutyl)amino)-2-(2,6-dioxopiperidin-3-yl)isoindolin-1,3-dione] | 1000 to 5000 ng·h/mL | 12 nM | < 10 nM
8 | O=C1CCC(N2C(=O)c3ccc(N[C@H]4C[C@@H](Oc5ccc(C6(c7ccc(OCc8ccnc(N9CC%10(COC%10)C9)n8)cc7)CCCC6)cc5)C4)cc3C2=O)C(=O)N1 (stereo partly drawn) [Example 361, 5-(((1s,3s)-3-(4-(1-(4-((2-(2-oxa-6-azaspiro[3.3]heptane-6-yl)pyrimidin-4-yl)methoxy)phenyl)cyclopentyl)phenoxy)cyclobutyl)amino)-2-(2,6-dioxopiperidin-3-yl)isoindolin-1,3-dione] | 1000 to 5000 ng·h/mL | 8 nM | < 10 nM
9 | CC1(N)CN(c2nccc(COc3ccc(C(C)(C)c4ccc(O[C@H]5C[C@@H](Nc6ccc7c(c6)C(=O)N(C6CCC(=O)NC6=O)C7=O)C5)cc4)cc3)n2)C1 (stereo partly drawn) [Example 268] | 1000 to 5000 ng·h/mL | 9 nM | < 10 nM
10 | Cc1nnc(-c2cccc(Oc3ccc(C(C)(C)c4ccc(O[C@H]5C[C@H](Nc6ccc7c(c6)C(=O)N(C6CCC(=O)NC6=O)C7=O)C5)cc4)cc3)n2)o1 (stereo partly drawn) [Example 423] | 5000 to 30000 ng·h/mL | 3 nM | < 10 nM
11 | CC(C)(c1ccc(OCc2ccnc(N3CC4(COC4)C3)n2)cc1)c1ccc(O[C@H]2C[C@H](Nc3ccc4c(c3)C(=O)N(C3CCC(=O)NC3=O)C4=O)C2)cc1 (stereo partly drawn) [Example 75] | 5000 to 30000 ng·h/mL | 8 nM | < 10 nM
12 | Cc1nc(-c2ccc(Oc3ccc(C4(c5ccc(O[C@H]6C[C@H](Nc7ccc8c(c7)C(=O)N(C7CCC(=O)NC7=O)C8=O)C6)cc5)CCCC4)cc3)nn2)no1 (stereo partly drawn) [Example 338] | 1000 to 5000 ng·h/mL | 2 nM | < 10 nM
13 | CC(C)(c1ccc(Oc2ccc(-n3nccn3)nc2)cc1)c1ccc(O[C@H]2C[C@H](Nc3ccc4c(c3)CN(C3CCC(=O)NC3=O)C4=O)C2)cc1 (stereo partly drawn) [Example 94] | 1000 to 5000 ng·h/mL | 4 nM | < 10 nM
14 | CC(C)(c1ccc(OCc2ccnc(-n3nccn3)n2)cc1)c1ccc(O[C@H]2C[C@H](Nc3ccc4c(c3)C(=O)N(C3CCC(=O)NC3=O)C4=O)C2)cc1 (stereo partly drawn) [Example 231] | 5000 to 30000 ng·h/mL | 8.6 nM | 11 to 100 nM
15 | CC(C)(c1ccc(OCc2ccnc(N3CC4(COC4)C3)n2)cc1)c1ccc(O[C@H]2C[C@@H](Nc3ccc4c(c3)C(=O)N(C3CCC(=O)NC3=O)C4=O)C2)cc1 (stereo partly drawn) [Example 76, 5-(((1s,3s)-3-(4-(2-(4-((2-(2-oxa-6-azaspiro[3.3]heptane-6-yl)pyrimidin-4-yl)methoxy)phenyl)propan-2-yl)phenoxy)cyclobutyl)amino)-2-(2,6-dioxopiperidin-3-yl)isoindolin-1,3-dione] | 1000 to 5000 ng·h/mL | 11 nM | < 10 nM
16 | CC(C)(c1ccc(OCc2ccnc(N3CC4(CCO4)C3)n2)cc1)c1ccc(O[C@H]2C[C@@H](Nc3ccc4c(c3)C(=O)N(C3CCC(=O)NC3=O)C4=O)C2)cc1 (stereo partly drawn) [Example 196] | 1000 to 5000 ng·h/mL | 10 nM | < 10 nM
17 | CC(=O)c1nccc(COc2ccc(C(C)(C)c3ccc(O[C@H]4C[C@H](Nc5ccc6c(c5)C(=O)N(C5CCC(=O)NC5=O)C6=O)C4)cc3)cc2)n1 (stereo partly drawn) [Example 110, 5-(((trans)-3-(4-(2-(4-((2-acetylpyrimidin-4-yl)methoxy)phenyl)propan-2-yl)phenoxy)cyclobutyl)amino)-2-(2,6-dioxopiperidin-3-yl)isoindolin-1,3-dione] | 5000 to 30000 ng·h/mL | 3 nM | < 10 nM
18 | CC(C)(c1ccc(OCc2ccnc(N3CC4(COC4)C3)n2)cc1)c1ccc(N2CC(Nc3ccc4c(c3)C(=O)N(C3CCC(=O)NC3=O)C4=O)C2)cc1 (stereo not drawn) [Example 154] | 1000 to 5000 ng·h/mL | 7 nM | < 10 nM
